Results published in patent US20090111798A1, “5,6-DIHYDRO-1H-PYRIDIN-2-ONE COMPOUNDS” (priority 2006, published 2009).
pIC50: −log10 of the molar value.

target: NS5B polymerase (Hepatitis C virus genotype 1b, UniProt P26663); assay: biochemical; conditions: NS5B polymerase inhibition; 20 nM enzyme, 75 min at 28° C.
Summary of the method: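 20 nM enzyme with 250 nM biotinylated oligo(rG13)/poly rC, 0.6 μM GTP plus [α-33P]GTP, in pH 7.5 Tris buffer with 5 mM MgCl2, 75 min at 28 °C. Incorporated radioactivity counted on streptavidin plates; IC50 from 4-parameter fit versus uninhibited control.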

Chain of NS5B polymerase (P26663 2420-3010): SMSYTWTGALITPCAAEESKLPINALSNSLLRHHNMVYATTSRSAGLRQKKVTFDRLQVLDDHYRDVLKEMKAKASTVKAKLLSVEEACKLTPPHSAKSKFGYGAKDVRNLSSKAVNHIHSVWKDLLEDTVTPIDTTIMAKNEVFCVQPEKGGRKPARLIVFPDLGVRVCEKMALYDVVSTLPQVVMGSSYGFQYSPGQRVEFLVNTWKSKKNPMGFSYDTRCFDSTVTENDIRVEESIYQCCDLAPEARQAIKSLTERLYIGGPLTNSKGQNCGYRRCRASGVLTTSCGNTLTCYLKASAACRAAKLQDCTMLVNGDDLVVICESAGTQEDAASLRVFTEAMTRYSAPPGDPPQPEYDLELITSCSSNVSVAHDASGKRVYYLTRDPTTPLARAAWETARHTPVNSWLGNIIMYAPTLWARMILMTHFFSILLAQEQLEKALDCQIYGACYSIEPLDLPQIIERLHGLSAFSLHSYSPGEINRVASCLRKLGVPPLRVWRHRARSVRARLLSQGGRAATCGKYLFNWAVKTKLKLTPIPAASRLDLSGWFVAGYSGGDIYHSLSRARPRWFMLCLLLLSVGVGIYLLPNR

Compound	pIC50
CS(=O)(=O)Nc1ccc2c(c1)S(=O)(=O)N=C(C1=C(O)[C@@H]3CCC[C@@H]3N(Cc3cccc(C(F)(F)F)c3)C1=O)N2 [Example 15, (4aR,7aS)—N-{3-[4-Hydroxy-2-oxo-1-(3-trifluoromethyl-benzyl)-2,4-a,5,6,7,7a-hexahydro-1H-[1]pyrindin-3-yl]-1,1-dioxo-1,4-dihydro-1λ^6-benzo[1,2,4]thiadiazin-7-yl}-methanesulfonamide]	6.00 to 7.00
CS(=O)(=O)Nc1ccc2c(c1)S(=O)(=O)N=C(C1=C(O)[C@@H]3CCC[C@@H]3N(C3CCCCC3)C1=O)N2 (relative stereo) [Example 43, cis-N-[3-(1-Cyclohexyl-4-hydroxy-2-oxo-2,4-a,5,6,7,7a-hexahydro-1H-[1]pyrindin-3-yl)-1,1-dioxo-1,4-dihydro-1λ^6-benzo[1,2,4]thiadiazin-7-yl]-methanesulfonamide]	6.00 to 7.00
O=C1C(C2=NS(=O)(=O)c3cc(N4CCCCC4)ccc3N2)=C(O)[C@@H]2CCC[C@@H]2N1Cc1ccc(F)cc1 [Example 42, (4aR,7aS)-3-(1,1-Dioxo-7-piperidin-1-yl-1,4-dihydro-1λ^6-benzo[1,2,4]thiadiazin-3-yl)-1-(4-fluoro-benzyl)-4-hydroxy-1,4-a,5,6,7,7a-hexahydro-[1]pyrindin-2-one]	4.00 to 6.00
CS(=O)(=O)Nc1ccc2c(c1)S(=O)(=O)N=C(C1=C(O)[C@@H]3CCC[C@@H]3N(CCc3ccccc3)C1=O)N2 (relative stereo) [Example 9, cis-N-[3-(4-Hydroxy-2-oxo-1-phenethyl-2,4-a,5,6,7,7a-hexahydro-1H-[1]pyrindin-3-yl)-1,1-dioxo-1,4-dihydro-1λ^6-benzo[1,2,4]thiadiazin-7-yl]-methanesulfonamide]	6.00 to 7.00
CN(C)CCN1C(=O)C(C2=NS(=O)(=O)c3cc(NS(C)(=O)=O)ccc3N2)=C(O)[C@@H]2CCC[C@@H]21 (relative stereo) [Example 6]	4.00 to 6.00

Further lines, results first:

pIC50	Compound
7.00 to 7.70	CC(C)(C)CCN1C(=O)C(C2=NS(=O)(=O)c3cc(NS(C)(=O)=O)ccc3N2)=C(O)C2CCCCC21 (stereo not shown) [Example 21, N-{3-[2-(3,3-Dimethylbutyl)-5-hydroxy-3-oxo-2-aza-bicyclo[4.4.0]dec-4-en-4-yl]-1,1-dioxo-1,4-dihydro-1λ^6-benzo[1,2,4]thiadiazin-7-yl}-methanesulfonamide]
> 7.70	CC(C)(C)CCN1C(=O)C(C2=NS(=O)(=O)c3cc(NS(C)(=O)=O)ccc3N2)=C(O)[C@H]2CCC[C@H]21 (relative stereo) [Example 18, cis-N-{3-[2-(3,3-Dimethylbutyl)-5-hydroxy-3-oxo-2-aza-bicyclo[4.3.0]non-4-en-4-yl]-1,1-dioxo-1,4-dihydro-1λ^6-benzo[1,2,4]thiadiazin-7-yl}-methanesulfonamide]
> 7.70	CC(C)CCN1C(=O)C(C2=NS(=O)(=O)c3cc(NS(C)(=O)=O)ccc3N2)=C(O)[C@@H]2CCC[C@@H]21 [Example 28, (4aR,7aS)—N-{3-[4-Hydroxy-1-(3-methyl-butyl)-2-oxo-2,4-a,5,6,7,7a-hexahydro-1H-[1]pyrindin-3-yl]-1,1-dioxo-1,4-dihydro-1λ^6-benzo[1,2,4]thiadiazin-7-yl]-methanesulfonamide]
> 7.70	CS(=O)(=O)Nc1ccc2c(c1)S(=O)(=O)N=C(C1=C(O)[C@@H]3CCC[C@@H]3N(Cc3ccc(F)c(F)c3)C1=O)N2 [Example 27, (4aR,7aS)—N-{3-[1-(3,4-Difluoro-benzyl)-4-hydroxy-2-oxo-2,4-a,5,6,7,7a-hexahydro-1H-[1]pyrindin-3-yl]-1,1-dioxo-1,4-dihydro-1λ^6-benzo[1,2,4]thiadiazin-7-yl]-methanesulfonamide]
7.00 to 7.70	CS(=O)(=O)Nc1ccc2c(c1)S(=O)(=O)N=C(C1=C(O)C3CCCCCC3N(Cc3ccc(F)cc3)C1=O)N2 (stereo not shown) [Example 2, N-{3-[1-(4-Fluoro-benzyl)-4-hydroxy-2-oxo-2,4-a,5,6,7,8,9,9a-octahydro-1H-cyclohepta[b]pyridin-3-yl]-1,1-dioxo-1,4-dihydro-1λ^6-benzo[1,2,4]thiadiazin-7-yl}-methanesulfonamide]
